Data taken from patent publication US20230159583A1, “COMPOUND FOR TREATING GOUT, PREPARATION METHOD THEREFOR, AND USE THEREOF” (Huazhong Pharmaceutical Co., Ltd., priority 2020, published 2023).
Where two headings read alike, the source gives them in different places.

How the values were obtained:
Type in all cases: in vivo
ICR mice = conditions: p.o.
Protocol: The experiment was designed according to the “Technical Guideline for Acute Toxicity Test of Chemical Drugs” issued by the State Food and Drug Administration in March 2005. The doses administered were 4 g/kg, 4.91 g/kg, 6.14 g/kg, 7.68 g/kg, 9.6 g/kg, 12 g/kg, and 15 g/kg (the dose could be adjusted according to the actual test results), 12 ICR mice per dose group. If the administration volume is greater than 0.5 ml, it is better to perform the drug administration in two or more times (Note: according to the national standard GB 15193.3-2014, if multiple drug administrations are required, the time interval should be 4 h to 6 h each time, and the patient should be fasted on the day before drug administration).

[1] = test system: carrageenan-induced mouse paw swelling; assay: carrageenan-induced mouse paw swelling model; conditions: for Circumference of the paw after administration: 180 min after onset of inflammation (0.5% carrageenan); for inhibition in vivo at 0.26 mg/kg / inhibition in vivo at 13 mg/kg / inhibition in vivo at 130 mg/kg / change in vivo at 130 mg/kg: Mus musculus, po, 3 h; for inhibition in vivo at 0.26 mg/kg: dosage 0.26 mg/kg; for inhibition in vivo at 0.26 mg/kg / inhibition in vivo at 13 mg/kg / inhibition in vivo at 130 mg/kg: read-out: Swelling inhibition rate; for inhibition in vivo at 13 mg/kg: dosage 13 mg/kg; for change in vivo at 130 mg/kg: read-out: Swelling degree
Protocol: The anti-inflammatory effects of the compounds prepared in the above Examples were detected using a carrageenan-induced mouse paw swelling model, and the control sample was methylprednisolone:
Carrageenan-induced mouse paw swelling model is a classical acute inflammation model commonly used for evaluating or screening anti-inflammatory effects of drugs. When carrageenan is injected into the paw of mice, a series of reactions similar to human acute inflammation such as local capillary dilatation, increased vascular permeability, exudation and edema can be caused, so the model can be widely used in the evaluation of new drugs.
Reference for experimental method: Yang Huan, Cheng Xiao, Wang Yuehua, Du Guanhua. Effects of esculin on the swelling of toes and inflammation induced by carrageenan in mice [J]. Chinese Journal of New Drugs, 2016(25):2322.
On the day of the experiment, the circumference of right hind paw (cm) of each mouse was measured firstly, and then, after the onset of inflammation, the circumference of right hind paw was measured so that the difference of the circumferences of the paws before and after inflammation was swelling degree, and the swelling inhibition rate of paw (swelling inhibition rate %=(C−T)/C*100%); C=swelling rate of the control group %, and T=swelling rate of the treatment group) was calculated.
(2) Gavage administration was performed once a day for seven consecutive days. The circumference of the right hind paw was marked and measured before the last administration, and the average value of the two measurements was taken as the standard. 30 min after the last administration, 20 μL/mice of 0.5% carrageenan was injected into the right hind ankle of the mice to induce inflammation, and the circumference of paw was measured 180 min after the onset of inflammation. […]

[2] = test system: rat paw swelling induced by monosodium urate (MSU); assay: rat paw swelling model induced by monosodium urate (MSU); conditions: for inhibition in vivo at 90 mg/kg / inhibition in vivo at 0.36 mg/kg / inhibition in vivo at 1.8 mg/kg / inhibition in vivo at 9 mg/kg / change in vivo at 90 mg/kg: Rattus norvegicus, po; for inhibition in vivo at 90 mg/kg / inhibition in vivo at 0.36 mg/kg / inhibition in vivo at 1.8 mg/kg / inhibition in vivo at 9 mg/kg: 1 h, read-out: Swelling inhibition rate; for inhibition in vivo at 0.36 mg/kg: dosage 0.36 mg/kg; for inhibition in vivo at 1.8 mg/kg: dosage 1.8 mg/kg; for inhibition in vivo at 9 mg/kg: dosage 9 mg/kg; for change in vivo at 90 mg/kg: read-out: Swelling degree; for Mean volume of paw after administration: 1 h after onset of inflammation (50 μL 2% MSU)
From the text: Gout is a disease unique to human, and gouty arthritis is an inflammatory reaction caused by the deposition of monosodium urate (MSU) in local joint tissues. Since purine metabolism pathways in some mammals such as mice and rabbits are different from those in humans, it is impossible to construct a gouty arthritis model by the method of interfering with purine metabolism disorders, so the most direct method for causing gouty arthritis is to directly inject MSU into the joint cavity of the model animal. The model is only used for simulating local joint inflammation of gout, is suitable for observation of local arthritis symptoms, is a common method for screening anti-inflammatory effects of gout drugs at present, and has the advantages of stability, easy operation and the like. (Reference: Li Na, Hua Long, and Yuan Hui. Research progress of gout animal models [J]. Medical theory and practice, 2016(24).
The anti-gout effect of the compound prepared in the above Example was detected by using a rat paw swelling model induced by monosodium urate (MSU), and the control sample was methylprednisolone.
Experimental method: MSU was used as an inflammatory agent, injected subcutaneously into the hind paws of rats to cause paw swelling, and then the volume of the paws was measured, and the swelling rates and swelling inhibition rates of the treatment group and the control group were compared. On the day of the experiment, the volume of right hind paw (ml) of each rat was measured firstly, and then after the onset of inflammation, the volume of right hind paw was measured so that the difference of volume of paw before and after inflammation was swelling degree, and the swelling inhibition rate of paw (swelling inhibition rate %=(C−T)/C*100%); C=swelling rate of the control group %, and T=swelling rate of the treatment group) was calculated. This method is one of the commonly used methods for screening anti-inflammatory effects of gout drugs, and the model is stable and easy to operate.
(2) One week before the subcutaneous injection of MSU into the feet and soles of the rats, the rats were given different doses of the test drugs, and the drugs were given by gavage once a day, for seven consecutive days. The circumference of the right hind paw was marked and measured before the last administration, and the average value of the two measurements was taken as the standard. 1 h after the last administration, animals in other groups were given 50 μL of 2% MSU in addition to the blank control group, and the paw circumference was measured 1 h after the onset of inflammation. […]

[3] = ICR mice, 130 mg/kg by gavage once a day for seven days, 180 min after onset of inflammation
[4] = ICR mice, 130 mg/kg by gavage once a day for seven days
[5] = mouse, carrageenan-induced paw swelling
[6] = mouse, carrageenan-induced paw swelling, dosage 130 mg/kg
[7] = SD rats, 90 mg/kg by gavage once a day for seven days, 1 h after onset of inflammation
[8] = rat, MSU-induced paw swelling, dosage 90 mg/kg
[9] = SD rats, 90 mg/kg by gavage once a day for seven days

Row | SMILES | Mortality (ICR mice; 4 g/kg) | Mortality (ICR mice; 4.91 g/kg) | Mortality (ICR mice; 6.14 g/kg) | Mortality (ICR mice; 7.68 g/kg) | Mortality (ICR mice; 9.6 g/kg) | Mortality (ICR mice; 12 g/kg) | Mortality (ICR mice; 15 g/kg) | Swelling value [1, 3] [cm] | Circumference of the paw after administration [1, 4] [cm] | inhibition in vivo at 0.26 mg/kg [1, 5] [%] | inhibition in vivo at 13 mg/kg [1, 5] [%] | inhibition in vivo at 130 mg/kg [1, 6] [%] | change in vivo at 130 mg/kg [1, 3] [%] | inhibition in vivo at 130 mg/kg [1, 3] [%] | inhibition in vivo at 90 mg/kg [2, 7] [%] | inhibition in vivo at 0.36 mg/kg ([2]; rat, MSU-induced paw swelling) [%] | inhibition in vivo at 1.8 mg/kg ([2]; rat, MSU-induced paw swelling) [%] | inhibition in vivo at 9 mg/kg ([2]; rat, MSU-induced paw swelling) [%] | inhibition in vivo at 90 mg/kg [2, 8] [%] | change in vivo at 90 mg/kg [2, 7] [%] | further results
1 | C[C@@H]1C[C@H]2[C@@H]3CCC4=CC(=NO)C=C[C@]4(C)[C@H]3[C@@H](O)C[C@]2(C)[C@H]1/C(CO)=N/O [Example 10] | 0/12 | 0/12 | 1/12 | 1/12 | 3/12 | 4/12 | 5/12 | 0.11 | 1.58 | 8.12 | 30.9 | 62.4 | 7.48 | 61.3 | 68.9 | 9.21 | 32.1 | 51.2 | 65.2 | 102 | Swelling value [2, 7]: 1.24 mL; Mean volume of paw after administration [2, 9]: 2.45 mL
2 | CC(=O)OC/C(=N\O)[C@@]1(O)CC[C@H]2[C@@H]3CCC4=CC(=NO)CC[C@]4(C)[C@H]3[C@@H](O)C[C@@]21C [Example 5, (2E)-2-((8S,9S,10R,11S,13S,14S,17R)-11,17-dihydroxy-3-(hydroxyimino)-10,13-dimethyl-2,3,6,7,8,9,10,11,12,13,14,15,16,17-tetrahydro-1H-cyclopentane[α]phenanthroyl)-2-(hydroxyimino)ethyl acetate] | 0/12 | 0/12 | 0/12 | 0/12 | 1/12 | 2/12 | 4/12 | 0.04 | 1.52 | 13.5 | 56.8 | 88.1 | 2.7 | 86 | 82.1 | 23.4 | 35.3 | 56.3 | 80.1 | 59 | Swelling value [2, 7]: 0.72 mL; Mean volume of paw after administration [2, 9]: 1.94 mL
3 | CCCCC(=O)O[C@]1(/C(CO)=N/O)CC[C@H]2[C@@H]3C[C@H](C)C4=CC(=NO)C=C[C@]4(C)[C@H]3[C@@H](O)C[C@@]21C [Example 17, (6S,8S,9S,10R,11S,13S,14S,17R,E)-11-hydroxy-17-((E)-2-hydroxy-1-(hydroxyimino)ethyl)-3-(hydroxyimino)-6,10,13-trimethyl-6,7,8,9,10,11,12,13,14,15,16,17-dodecahydro-3H-cyclopentane[α]phenanthrene-17-yl valerate] | 0/12 | 0/12 | 0/12 | 0/12 | 0/12 | 0/12 | 0/12 | 0.01 | 1.43 | 28.2 | 60.3 | 98.7 | 0.7 | 96.4 | 96.4 | 10.3 | 56.1 | 78.2 | 97 | 11.9 | Swelling value [2, 7]: 0.14 mL; Mean volume of paw after administration [2, 9]: 1.32 mL
4 | CCON=C1C=C[C@@]2(C)C(=C1)CC[C@@H]1[C@@H]2[C@@H](O)C[C@@]2(C)[C@H]1C[C@@H](C)[C@]2(O)/C(COC(C)=O)=N/OCC [Example 11] | 0/12 | 0/12 | 0/12 | 0/12 | 0/12 | 0/12 | 0/12 | 0.1 | 1.53 | 15.5 | 35.8 | 68.1 | 6.99 | 63.9 | 64.7 | 10.2 | 35.2 | 49 | 67.5 | 116 | Swelling value [2, 7]: 1.42 mL; Mean volume of paw after administration [2, 9]: 2.64 mL
